Assay results published in ChEMBL document CHEMBL3885861, “Open TG-GATES”.

Species on record: Rattus norvegicus
Experiment: Open TG-GATES - Regimen: Single
Assay type: toxicity, organism-based, Sprague-Dawley
Design: regimen Single, gender Male, age 6 weeks
Details: in vivo, po, 10 mg/kg, route gavage, dose level Middle; for APTT / Bas / Eos / Fbg / Hb / Ht / Lym / MCH / MCHC / MCV / Mono / Neu / PT / Plat / RBC / Ret / WBC: tissue Blood; for KIDNEY_L / KIDNEY_R / KIDNEY_TOTAL: tissue Kidney; for LIVER: tissue Liver; for A/G / ALP / ALT / AST / BUN / CRE / Ca / Cl / DBIL / GLC / IP / K / LDH / Na / PL / RALB / TBIL / TC / TG / TP / gamma-GTP: tissue Plasma

Q: How did the TERMINAL_BW (3 h) turn out when `CN(C)CCC(c1ccc(Cl)cc1)c1ccccn1` (configuration not stated) [CHLORPHENIRAMINE] was run?
A: 196.8 g

Q: And the APTT (3 h)?
A: 19.7 s

Q: And the Bas (3 h)?
A: 0%

Q: And the Eos (3 h)?
A: 0.4%

Q: What about the Fbg (3 h) of the same molecule?
A: 295.8 mg/dL

Q: And the Hb (3 h)?
A: 13.5 g/dL

Q: What about the Ht (3 h) of the same molecule?
A: 42%

Q: And the Lym (3 h)?
A: 77.4%

Q: What about the MCH (3 h) of the same molecule?
A: 21.3 pg

Q: What about the MCHC (3 h) of the same molecule?
A: 32.1%

Q: And the MCV (3 h)?
A: 66.1 fL

Q: What about the Mono (3 h) of the same molecule?
A: 3%

Q: What about the Neu (3 h) of the same molecule?
A: 18.2%

Q: What about the PT (3 h) of the same molecule?
A: 14.7 s

Q: What about the Plat (3 h) of the same molecule?
A: 126.4 x10_4/uL

Q: What about the RBC (3 h) of the same molecule?
A: 634 x10_4/ul

Q: What about the Ret (3 h) of the same molecule?
A: 9.7%

Q: What about the WBC (3 h) of the same molecule?
A: 73.4 x10_2/uL

Q: What about the KIDNEY_L (3 h) of the same molecule?
A: 0.8 g

Q: What about the KIDNEY_R (3 h) of the same molecule?
A: 0.8 g

Q: What about the KIDNEY_TOTAL (3 h) of the same molecule?
A: 1.6 g

Q: And the LIVER (3 h)?
A: 9 g

Q: What about the A/G (3 h) of the same molecule?
A: 0.9

Q: And the ALP (3 h)?
A: 1551 IU/L

Q: What about the ALT (3 h) of the same molecule?
A: 47.4 IU/L

Q: And the AST (3 h)?
A: 74.6 IU/L

Q: And the BUN (3 h)?
A: 9.2 mg/dL

Q: What about the CRE (3 h) of the same molecule?
A: 0.2 mg/dL

Q: And the Ca (3 h)?
A: 10.9 mg/dL

Q: What about the Cl (3 h) of the same molecule?
A: 107.6 meq/L

Q: And the DBIL (3 h)?
A: 0.006 mg/dL

Q: And the GLC (3 h)?
A: 180.2 mg/dL

Q: And the IP (3 h)?
A: 10.3 mg/dL

Q: And the K (3 h)?
A: 4.1 meq/L

Q: What about the LDH (3 h) of the same molecule?
A: 200.6 IU/L

Q: What about the Na (3 h) of the same molecule?
A: 144.6 meq/L

Q: And the PL (3 h)?
A: 156 mg/dL

Q: What about the RALB (3 h) of the same molecule?
A: 2.6 g/dL

Q: What about the TBIL (3 h) of the same molecule?
A: 0.046 mg/dL

Q: And the TC (3 h)?
A: 84.6 mg/dL

Q: And the TG (3 h)?
A: 75 mg/dL

Q: And the TP (3 h)?
A: 5.5 g/dL

Q: And the gamma-GTP (3 h)?
A: 1 IU/L

Q: And the TERMINAL_BW (6 h)?
A: 195.1 g

Q: What about the APTT (6 h) of the same molecule?
A: 21.5 s

Q: What about the Bas (6 h) of the same molecule?
A: 0%

Q: What about the Eos (6 h) of the same molecule?
A: 1%

Q: What about the Fbg (6 h) of the same molecule?
A: 297 mg/dL

Q: And the Hb (6 h)?
A: 13.2 g/dL

Q: And the Ht (6 h)?
A: 41%

Q: What about the Lym (6 h) of the same molecule?
A: 74.4%

Q: What about the MCH (6 h) of the same molecule?
A: 20.6 pg

Q: What about the MCHC (6 h) of the same molecule?
A: 32.2%

Q: And the MCV (6 h)?
A: 64 fL

Q: What about the Mono (6 h) of the same molecule?
A: 3%

Q: And the Neu (6 h)?
A: 20.8%

Q: And the PT (6 h)?
A: 14.9 s

Q: What about the Plat (6 h) of the same molecule?
A: 129.3 x10_4/uL

Q: What about the RBC (6 h) of the same molecule?
A: 641.2 x10_4/ul

Q: What about the Ret (6 h) of the same molecule?
A: 8.8%

Q: What about the WBC (6 h) of the same molecule?
A: 74.4 x10_2/uL

Q: And the KIDNEY_L (6 h)?
A: 0.8 g

Q: And the KIDNEY_R (6 h)?
A: 0.9 g

Q: What about the KIDNEY_TOTAL (6 h) of the same molecule?
A: 1.7 g

Q: What about the LIVER (6 h) of the same molecule?
A: 8.4 g

Q: And the A/G (6 h)?
A: 0.9

Q: What about the ALP (6 h) of the same molecule?
A: 1438.8 IU/L

Q: And the ALT (6 h)?
A: 42.2 IU/L

Q: And the AST (6 h)?
A: 73.4 IU/L

Q: What about the BUN (6 h) of the same molecule?
A: 7.8 mg/dL

Q: And the CRE (6 h)?
A: 0.2 mg/dL

Q: And the Ca (6 h)?
A: 10.5 mg/dL

Q: What about the Cl (6 h) of the same molecule?
A: 107 meq/L

Q: And the DBIL (6 h)?
A: 0.006 mg/dL

Q: And the GLC (6 h)?
A: 177.4 mg/dL

Q: And the IP (6 h)?
A: 10.1 mg/dL

Q: And the K (6 h)?
A: 4.2 meq/L

Q: And the LDH (6 h)?
A: 176 IU/L

Q: And the Na (6 h)?
A: 142.6 meq/L

Q: And the PL (6 h)?
A: 140.6 mg/dL

Q: And the RALB (6 h)?
A: 2.5 g/dL

Q: And the TBIL (6 h)?
A: 0.04 mg/dL

Q: And the TC (6 h)?
A: 80.8 mg/dL

Q: And the TG (6 h)?
A: 42.6 mg/dL

Q: And the TP (6 h)?
A: 5.5 g/dL

Q: What about the gamma-GTP (6 h) of the same molecule?
A: 1.6 IU/L

Q: And the TERMINAL_BW (9 h)?
A: 192.7 g

Q: What about the APTT (9 h) of the same molecule?
A: 17.7 s

Q: And the Bas (9 h)?
A: 0%

Q: And the Eos (9 h)?
A: 1%

Q: And the Fbg (9 h)?
A: 292.6 mg/dL

Q: What about the Hb (9 h) of the same molecule?
A: 13.3 g/dL

Q: And the Ht (9 h)?
A: 41.3%

Q: And the Lym (9 h)?
A: 76.2%

Q: What about the MCH (9 h) of the same molecule?
A: 20.8 pg

Q: What about the MCHC (9 h) of the same molecule?
A: 32.3%

Q: And the MCV (9 h)?
A: 64.3 fL

Q: What about the Mono (9 h) of the same molecule?
A: 1.8%

Q: And the Neu (9 h)?
A: 20.6%

Q: And the PT (9 h)?
A: 15.1 s

Q: What about the Plat (9 h) of the same molecule?
A: 123.4 x10_4/uL

Q: What about the RBC (9 h) of the same molecule?
A: 643.8 x10_4/ul

Q: What about the Ret (9 h) of the same molecule?
A: 8.5%

Q: And the WBC (9 h)?
A: 67.8 x10_2/uL

Q: What about the KIDNEY_L (9 h) of the same molecule?
A: 0.9 g

Q: What about the KIDNEY_R (9 h) of the same molecule?
A: 0.9 g

Q: And the KIDNEY_TOTAL (9 h)?
A: 1.8 g

Q: What about the LIVER (9 h) of the same molecule?
A: 7.5 g

Q: And the A/G (9 h)?
A: 0.9

Q: What about the ALP (9 h) of the same molecule?
A: 1406.4 IU/L

Q: And the ALT (9 h)?
A: 35.2 IU/L

Q: And the AST (9 h)?
A: 69 IU/L

Q: And the BUN (9 h)?
A: 7.2 mg/dL

Q: And the CRE (9 h)?
A: 0.1 mg/dL

Q: And the Ca (9 h)?
A: 10.4 mg/dL

Q: And the Cl (9 h)?
A: 105.6 meq/L

Q: What about the DBIL (9 h) of the same molecule?
A: 0.008 mg/dL

Q: And the GLC (9 h)?
A: 162 mg/dL

Q: What about the IP (9 h) of the same molecule?
A: 10.4 mg/dL

Q: And the K (9 h)?
A: 4 meq/L

Q: And the LDH (9 h)?
A: 145.2 IU/L

Q: And the Na (9 h)?
A: 142.4 meq/L

Q: And the PL (9 h)?
A: 131.2 mg/dL

Q: What about the RALB (9 h) of the same molecule?
A: 2.5 g/dL

Q: And the TBIL (9 h)?
A: 0.054 mg/dL

Q: And the TC (9 h)?
A: 80 mg/dL

Q: What about the TG (9 h) of the same molecule?
A: 37.8 mg/dL

Q: What about the TP (9 h) of the same molecule?
A: 5.5 g/dL

Q: And the gamma-GTP (9 h)?
A: 1.4 IU/L

Q: And the TERMINAL_BW (24 h)?
A: 209.2 g

Q: What about the APTT (24 h) of the same molecule?
A: 21.6 s

Q: And the Bas (24 h)?
A: 0%

Q: And the Eos (24 h)?
A: 0.8%

Q: And the Fbg (24 h)?
A: 287.6 mg/dL

Q: And the Hb (24 h)?
A: 12.5 g/dL

Q: And the Ht (24 h)?
A: 38.8%

Q: What about the Lym (24 h) of the same molecule?
A: 76.4%

Q: What about the MCH (24 h) of the same molecule?
A: 20.7 pg

Q: And the MCHC (24 h)?
A: 32.4%

Q: And the MCV (24 h)?
A: 63.9 fL

Q: And the Mono (24 h)?
A: 3.8%

Q: And the Neu (24 h)?
A: 18.2%

Q: And the PT (24 h)?
A: 14.8 s

Q: What about the Plat (24 h) of the same molecule?
A: 118.2 x10_4/uL

Q: And the RBC (24 h)?
A: 606.6 x10_4/ul

Q: And the Ret (24 h)?
A: 8.5%

Q: What about the WBC (24 h) of the same molecule?
A: 79.8 x10_2/uL

Q: What about the KIDNEY_L (24 h) of the same molecule?
A: 0.9 g

Q: And the KIDNEY_R (24 h)?
A: 0.9 g

Q: And the KIDNEY_TOTAL (24 h)?
A: 1.7 g

Q: And the LIVER (24 h)?
A: 9 g

Q: What about the A/G (24 h) of the same molecule?
A: 0.9

Q: What about the ALP (24 h) of the same molecule?
A: 1569.6 IU/L

Q: And the ALT (24 h)?
A: 46.4 IU/L

Q: And the AST (24 h)?
A: 77.8 IU/L

Q: And the BUN (24 h)?
A: 14.8 mg/dL

Q: What about the CRE (24 h) of the same molecule?
A: 0.2 mg/dL

Q: And the Ca (24 h)?
A: 10.8 mg/dL

Q: And the Cl (24 h)?
A: 106.6 meq/L

Q: What about the DBIL (24 h) of the same molecule?
A: 0.01 mg/dL

Q: What about the GLC (24 h) of the same molecule?
A: 184.2 mg/dL

Q: What about the IP (24 h) of the same molecule?
A: 8.2 mg/dL

Q: What about the K (24 h) of the same molecule?
A: 4.3 meq/L

Q: What about the LDH (24 h) of the same molecule?
A: 132.2 IU/L

Q: What about the Na (24 h) of the same molecule?
A: 142.8 meq/L

Q: What about the PL (24 h) of the same molecule?
A: 142.8 mg/dL

Q: And the RALB (24 h)?
A: 2.6 g/dL

Q: And the TBIL (24 h)?
A: 0.04 mg/dL

Q: And the TC (24 h)?
A: 76.4 mg/dL

Q: And the TG (24 h)?
A: 82.6 mg/dL

Q: What about the TP (24 h) of the same molecule?
A: 5.5 g/dL

Q: And the gamma-GTP (24 h)?
A: 1.2 IU/L
